This test has as its system HBEC-F508del. As to the kind of experiment: Transepithelial short-circuit anion current in HBEC-F508del, Example 3. Type of test: cell-based, human. How it is done: Methods: Transepithelial short-circuit current and ^36Cl net flux (Jnet) were measured in differentiated HBEC-F508del bathed in vehicle (no AA), AA test formulation (CF5AA-3) or AA negative control (NC; CF4AA-3) in Ussing chambers. Cells were treated with C18 (VX809-analogue), VX661 or DMSO for 24 hours. After blocking ENaC with benzamil, chloride secretion was stimulated using GLPG1837 (VX770-analogue) with or without forskolin. CFTRinh-172, CaCCinh-A01 or bumetanide were added to distinguish CFTR-, TMEM16A- and NKCC1-sensitive chloride currents, respectively. Western blot was performed on HBEC-F508del membrane fractions to determine apical CFTR expression.

`CC(C)(CO)c1cc2cc(NC(=O)C3(c4ccc5c(c4)OC(F)(F)O5)CC3)c(F)cc2n1C[C@@H](O)CO` [VX661, tezacaftor]: the basal anion current (corrector pretreatment 24 hours, cells bathed in vehicle (no AA)) is recorded as 1.5±0.2 μA. For the same compound, the “peak anion current after stimulation with forskolin and GLPG1837” value (forskolin and GLPG1837) is recorded as 7.9±0.7 μA.

For the origin of these results see patent US12220400B2, “Amino acid compositions and methods for treating cystic fibrosis” (UNIVERSITY OF FLORIDA RESEARCH FOUNDATION, INCORPORATED, priority 2018, dated 2025).
